This series can be described thus: Water gain (moisture uptake) of treated cotton swatches, no rinse / with rinse. It counts as physicochemical. Conditions: dried. On the procedure: Table 2: Water gain (mg) for cotton swatches with different treatments. […] No-rinse samples were treated, dried then incubated to monitor moisture uptake. With rinse samples were treated, rinsed with water, dried then incubated to monitor moisture uptake. Control represents swatches treated with water only.
For table 2, the test method is as follows: For “no rinse”: 1×1 cm cotton swatches (triplicates) are placed into a weigh boat where each is labeled according to treatment type and number. Initial weights are recorded for each sample. 500 uL of polymer solution is applied to each cotton swatch sample then reweighed as wet weight. Samples are allowed to dry overnight at room temperature conditions. Sample weights are recorded in the following morning as “no rinse”. Samples are then placed on a tray in the incubator at 37° C., 3.3% CO2, and approximately 90% humidity (the metal tray at the bottom of the incubator has plenty of distilled water in the pan to ensure constant humidity). Opening and closing the incubator door frequently causes parameters to shift so minimizing this will ensure proper control over parameter. Samples are incubated for 8 hours then reweighed. The weights represent the moisture uptake ability for the treated samples. […] Samples are weighed and placed in the incubator the following morning similar to above described procedure and weights are recorded as “with rinse”.

Consider `OCC(O)CO` [40% glycerin, glycerin], for which the Water gain runs as follows: (No Rinse, incubated 8 hours at 37° C., approximately 90% humidity) 393.3 mg; (With Rinse, rinsed with water, then incubated) 126.9 mg.

Source of the values: US20110104080A1, “Oral Compositions for Treatment of Dry Mouth” (priority 2009, published 2011).
